Tests used:
[1] = target: T1, yeast recombinant FLAG-GPBP (Homo sapiens, UniProt Q9Y5P4); test: FLAG-GPBP auto-phosphorylation assay; assay type: biochemical; conditions: 10 μM compound, 5 min at 30° C., autoradiography bands quantified, vehicle = 100; read-out: Relative kinase activity (% referred to vehicle)
T1 construct: FLAG; made in house
T1 sequence (Q9Y5P4 1-624): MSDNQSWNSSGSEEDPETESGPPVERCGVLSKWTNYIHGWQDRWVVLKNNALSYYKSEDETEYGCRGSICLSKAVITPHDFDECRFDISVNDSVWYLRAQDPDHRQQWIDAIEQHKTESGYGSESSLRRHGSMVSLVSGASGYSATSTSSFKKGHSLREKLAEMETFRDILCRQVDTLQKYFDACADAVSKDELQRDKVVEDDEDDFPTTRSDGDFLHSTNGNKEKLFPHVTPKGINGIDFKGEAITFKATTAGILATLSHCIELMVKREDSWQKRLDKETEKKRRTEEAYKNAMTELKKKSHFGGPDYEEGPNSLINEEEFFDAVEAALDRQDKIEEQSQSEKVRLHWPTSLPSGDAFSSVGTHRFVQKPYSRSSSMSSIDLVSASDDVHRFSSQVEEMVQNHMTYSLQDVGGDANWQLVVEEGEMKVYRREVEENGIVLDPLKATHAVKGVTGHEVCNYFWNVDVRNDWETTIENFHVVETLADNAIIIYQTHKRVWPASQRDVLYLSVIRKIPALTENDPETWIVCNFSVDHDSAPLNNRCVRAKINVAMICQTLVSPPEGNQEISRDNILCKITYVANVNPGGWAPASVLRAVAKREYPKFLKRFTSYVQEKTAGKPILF
Excerpt: Goodpasture antigen-binding protein (GPBP) is a non-conventional Ser/Thr kinase which targets and phosphorylates the non-collagenous (NC1) domain of α3 chain of human type IV collagen [α3(IV)NC1], known as Goodpasture antigen. GPBP expression has been associated with antibody-mediated glomerulonephritis, rheumatoid arthritis and drug-resistance cancer. We have reported that GPBP self-interacts, that aggregation and autophosphorylation regulate kinase activity, and that the Q2 peptide inhibits autophosphorylation and GPBP kinase activity (WO 00/50607). The GPBP kinase inhibitory activity of a number of terphenylic compounds mimicking Q2, a peptide representing a critical GPBP motif which is relevant for GPBP quaternary structure stabilization, have been tested on GPBP autophosphorylation ability The autophosphorylation ability of GPBP has been used to test the GPBP kinase inhibitor activity of several terphenylic compounds (Scheme 18) derived from the chemical structure of Q2 peptide, which in turn represents GPBP peptidic sequence relevant for self-interaction.
Two hundred nanograms of yeast recombinant FLAG-GPBP were subjected to phosphorylation assays in absence (vehicle) or presence of a 10 μM concentration of each of the indicated Q2-peptidomimetic compounds or an intermediate of synthesis used as negative control (C), during 5 min at 30° C. Reactions were subjected to SDS-PAGE, Western blot and autoradiography. The bands in the autoradiography were quantified using Image-Quant TL software. The kinase activity of GPBP in the presence of the indicated compounds was referred to the sample containing the vehicle, which was given a value of 100.
Yeast recombinant FLAG-GPBP production and purification were also performed. GPBP autophosphorylation assay times were limited to 10 min at 30° C.

[2] = target: T2, GPBP (Homo sapiens, UniProt Q9Y5P4); conditions: see U.S. Pat. No. 7,326,768; cited from earlier work
T2 sequence (Q9Y5P4 1-624): T1 sequence (Q9Y5P4 1-624)

[3] = target: T2, GPBP; conditions: see U.S. Pat. No. 7,326,768; cited from earlier work; remark: listed apart in the source

| Compound | activity at 10 µM [1] [%] | other results |
| --- | --- | --- |
| Cc1cccc(-c2ccc(-c3ccc(O)cc3CCC(=O)O)cc2CO)c1 [Compound 1a, 3-[4″-hydroxy-2′-(hydroxymethyl)-3-methyl-(1,1′;4′,1″)terphenyl-2″-yl]propionic acid] | 34 |  |
| O=C(O)CCc1cc(O)ccc1-c1ccc(-c2cccc(C(F)(F)F)c2)c(CO)c1 [Compound 1b, 3-[4″-hydroxy-2′-(hydroxymethyl)-3-(trifluoromethyl)-(1,1′;4′,1″)terphenyl-2″-yl]propionic acid] | 131 |  |
| O=C(O)CCc1cc(O)ccc1-c1ccc(-c2cccnc2)c(CO)c1 [Compound 1c, 3-[4-hydroxy-3′-(hydroxymethyl)-4′-(pyridin-3-yl)biphenyl-2-yl]propionic acid] | 58 |  |
| Cc1cccc(-c2ccc(-c3ccc(O)cc3C(C)C)cc2CCC(=O)O)c1 [Compound 2a, 3-[4″-hydroxy-2″-isopropyl-3-methyl-(1,1′;4′,1″)terphenyl-2′-yl]propionic acid] | 90 |  |
| Cc1cccc(-c2ccc(-c3ccc(O)cc3CCC(=O)O)cc2C)c1 [Compound 12a, 3-[4″-hydroxy-2′,3-dimethyl-(1,1′;4′,1″)terphenyl-2″-yl]propionic acid] | 53 |  |
| Cc1cc(-c2ccc(O)cc2CCC(=O)O)ccc1-c1cccc(C(F)(F)F)c1 [Compound 12b, 3-[4″-hydroxy-2′-methyl-3-(trifluoromethyl)-(1,1′;4′,1″)terphenyl-2″-yl]propionic acid] | 49 |  |
| Cc1cccc(-c2ccc(-c3ccc(O)cc3CCC(=O)O)cc2CF)c1 [Compound 15a, 3-[2′-(fluoromethyl)-4″-hydroxy-3-methyl-(1,1′;4′,1″)terphenyl-2″-yl]propionic acid] | 79 |  |
| O=C(O)CCc1cc(O)ccc1-c1ccc(-c2cccc(C(F)(F)F)c2)c(CF)c1 [Compound 15b, 3-[2′-(fluoromethyl)-4″-hydroxy-3-(trifluoromethyl)-(1,1′;4′,1″)terphenyl-2″-yl]propionic acid] | 21 |  |
| Cc1cccc(-c2ccc(-c3ccc(O)cc3CCC(=O)O)cc2C(F)F)c1 [Compound 20a, 3-[2′-(difluoromethyl)-4″-hydroxy-3-methyl-(1,1′;4′,1″)terphenyl-2″-yl]propionic acid] | 61 |  |
| O=C(O)CCc1cc(O)ccc1-c1ccc(-c2cccc(C(F)(F)F)c2)c(C(F)F)c1 [Compound 20b, 3-[2′-(difluoromethyl)-4″-hydroxy-3-(trifluoromethyl)-(1,1′;4′,1″)terphenyl-2″-yl]propionic acid] | 77 |  |
| COc1ccc(-c2ccc(-c3ccc(OC)c(C)c3)c(C)c2)c(CCC(=O)O)c1 [Compound 32, 3-[4,4″-dimethoxy-3,2′-dimethyl-(1,1′;4′,1″)terphenyl-2″-yl]propionic acid] | 28 |  |
| LATLSHCIELMVKR [Compound Q2, synthetic peptide representing the five-residue SHCIE motif of GPBP and flanking regions] |  | inhibition of GPBP autophosphorylation [2]: efficiently inhibited GPBP autophosphorylation; α3(IV)NC1 conformer production by GPBP [3]: reduce α3(IV)NC1 conformer production |

Continued, in another order:

| activity at 10 µM [1] [%] | Compound | other results |
| --- | --- | --- |
| 118 | COc1ccc(-c2ccc(-c3cccc(C)c3)c(CO)c2)c(CCC(=O)O)c1 [Compound 22a, 3-[2′-(hydroxymethyl)-4″-methoxy-3-methyl-(1,1′;4′,1″)terphenyl-2″-yl]propionic acid] |  |
| 44 | COc1ccc(-c2ccc(-c3cccc(C)c3)c(C)c2)c(CCC(=O)O)c1 [Compound 22b, 3-[4″-methoxy-3,2′-dimethyl-(1,1′;4′,1″)terphenyl-2″-yl]propionic acid] |  |
| 123 | COc1ccc(-c2ccc(-c3cccc(C)c3)c(CF)c2)c(CCC(=O)O)c1 [Compound 22c, 3-[2′-(fluoromethyl)-4″-methoxy-3-methyl-(1,1′;4′,1″)terphenyl-2″-yl]propionic acid] |  |
| 79 | COc1ccc(-c2ccc(-c3cccc(C)c3)c(C(F)F)c2)c(CCC(=O)O)c1 [Compound 22d, 3-[2′-(difluoromethyl)-4″-methoxy-3-methyl-(1,1′;4′,1″)terphenyl-2″-yl]propionic acid] |  |
| 129 | COc1ccc(-c2ccc(-c3cccc(C(F)(F)F)c3)c(CO)c2)c(CCC(=O)O)c1 [Compound 22e, 3-[2′-(hydroxymethyl)-4″-methoxy-3-(trifluoromethyl)-(1,1′;4′,1″)terphenyl-2″-yl]propionic acid] |  |
| 41 | COc1ccc(-c2ccc(-c3cccc(C(F)(F)F)c3)c(C)c2)c(CCC(=O)O)c1 [Compound 22f, 3-[2′-methyl-4″-methoxy-3-(trifluoromethyl)-(1,1′;4′,1″)terphenyl-2″-yl]propionic acid] |  |
| 103 | COc1ccc(-c2ccc(-c3cccc(C(F)(F)F)c3)c(CF)c2)c(CCC(=O)O)c1 [Compound 22g, 3-[2′-(fluoromethyl)-4″-methoxy-3-(trifluoromethyl)-(1,1′;4′,1″)terphenyl-2″-yl]propionic acid] |  |
| 49 | COc1ccc(-c2ccc(-c3cccc(C(F)(F)F)c3)c(C(F)F)c2)c(CCC(=O)O)c1 [Compound 22h, 3-[2′-(difluoromethyl)-4″-methoxy-3-(trifluoromethyl)-(1,1′;4′,1″)terphenyl-2″-yl]propionic acid] |  |
| 132 | COc1ccc(-c2ccc(-c3cccnc3)c(CO)c2)c(CCC(=O)O)c1 [Compound 22i, 3-[3′-(hydroxymethyl)-4-methoxy-4′-(pyridin-3-yl)biphenyl-2-yl]propionic acid] |  |
| 50 | COc1ccc(-c2ccc(-c3cccnc3)c(C)c2)c(CCC(=O)O)c1 [Compound 22j, 3-[4-methoxy-3′-methyl-4′-(pyridin-3-yl)biphenyl-2-yl]propionic acid] |  |
| 135 | COc1ccc(-c2ccc(-c3cccnc3)c(CF)c2)c(CCC(=O)O)c1 [Compound 22k, 3-[3′-(fluoromethyl)-4-methoxy-4′-(pyridin-3-yl)biphenyl-2-yl]propionic acid] |  |
| 136 | COc1ccc(-c2ccc(-c3cccnc3)c(C(F)F)c2)c(CCC(=O)O)c1 [Compound 22l, 3-[3′-(difluoromethyl)-4-methoxy-4′-(pyridin-3-yl)biphenyl-2-yl]propionic acid] |  |
| 73 | CCCOc1ccc(-c2ccc(-c3cccc(C)c3)c(C)c2)c(CCC(=O)O)c1 [Compound 24a, 3-[3,2′-dimethyl-4″-propoxy-(1,1′;4′,1″)terphenyl-2″-yl]propionic acid] |  |
| 64 | Cc1cccc(-c2ccc(-c3ccc(OCC(=O)O)cc3CCC(=O)O)cc2C)c1 [Compound 24b, 3-[4″-(carboxymethoxy)-3,2′-dimethyl-(1,1′;4,1″)terphenyl-2″-yl]propionic acid] |  |
| 36 | CCCOc1ccc(-c2ccc(-c3cccc(C(F)(F)F)c3)c(C)c2)c(CCC(=O)O)c1 [Compound 24c, 3-[2′-methyl-4″-propoxy-3-(trifluoromethyl)-(1,1′;4′,1″)terphenyl-2″-yl]propionic acid] |  |

Reference: US10544083B2, “GPBP inhibition using Q2 peptidomimetics” (FibroStatin, S.L., priority 2009, dated 2020)
